# Data published in US6162459A, “Acyclovir transdermal delivery system” (priority 1997, dated 2000).
# “Also recorded” adds a separate entry of the source.
# Experiments:
# [1] = in vitro; cited from earlier work
# [2] = in vivo; cited from earlier work
# [3] = used locally; cited from earlier work
# [4] = format: physicochemical
# Description: Since drugs are said to pass the skin through either polar pathways or norpolar pathways, it is instructive to examine the solubility parameters and lipophilic indices of such enhancers, the latter being calculated from the defermination of their k' values in the mobile phase of varying methanol concentrations of the HPLC method used.
# [5] = system: HSV 1; conditions: cited from earlier work
# [6] = system: HSV 1; conditions: cited from earlier work; remark: listed apart in the source
# [7] = system: HSV; conditions: in vivo studies; cited from earlier work
# [8] = system: Varicella Zoster virus(VZV); conditions: cited from earlier work
# [9] = system: Cytomegalovirus(CMV); conditions: cited from earlier work
# [10] = system: Epstein Barr virus(EBV); conditions: cited from earlier work
# [11] = system: HSV 2; conditions: cited from earlier work
compound,measurement,setting,value
CC1(C)[C@@H](O[C@H]2O[C@H](C(=O)O)[C@@H](O)[C@H](O)[C@H]2O[C@@H]2O[C@H](C(=O)O)[C@@H](O)[C@H](O)[C@H]2O)CC[C@]2(C)[C@H]3C(=O)C=C4[C@@H]5C[C@@](C)(C(=O)O)CC[C@]5(C)CC[C@@]4(C)[C@]3(C)CC[C@@H]12 [glycyrrhizin],anti-inflammatory property,[1],anti-inflammatory property
same,effect against paw swelling,[2],effective against paw swelling
O=c1[nH]c(=O)n([C@H]2C[C@H](O)[C@@H](CO)O2)cc1I [IDU],toxicity,[3],relatively low toxicities
CC1(C)CC[C@]2(C(=O)O)CC[C@]3(C)C(=CC[C@@H]4[C@@]5(C)CC[C@H](O)C(C)(C)[C@@H]5CC[C@]43C)[C@@H]2C1 [oleanolic acid],polarity,[4],opposite polarities
"Nc1nc2c(ncn2COCCO)c(=O)[nH]1 [ACV, 9-[(2-Hydroxyethoxy)methyl]-guanine]",activity against HSV 1,[5],active; also recorded: especially HSV 1
same,"drug concentration in the skin, local vs oral",[6]; local application vs given orally,2-3 times lower
same,"effect in the treatment of HSV 1, oral vs local",[6]; oral administration vs local application,better with oral administration than with local application
same,"in vivo rating to treat HSV, comparison",[7],better than FIAC(D17) and DHPG(D2); also recorded: better than bromovinyldeoxy uridine(D16) being effective against both HSV 1 and HSV 2
same,activity against VZV,[8],active
same,activity against CMV,[9],active
same,"effectiveness against CMV, comparison","[9]; compared with DHPG, Idoxuridine, Trifluridine, or Ara-A, in some case","less effective against CMV as compared with DHPG, Idoxuridine, Trifluridine, orAra-A"
same,activity against EBV,[10],"active against EBV, but only during the productive cycle"
same,activity against HSV 2,[11],active
